US20250319108A1, “COMBINATIONS” (AN2 Therapeutics, Inc., priority 2021, published 2025)
Converted amounts (≈) assume the structure as drawn. Where a name gives a salt, the structure may show the parent alone. Read-outs that look alike come from different tables or passages of the source.

What was measured:
[1] = system: M. abscessus ATCC 19977; test: MIC, broth microdilution; format: cell-based; settings: for MIC: Mycobacteroides abscessus, ATCC19977, read-out: In Vitro Activity (MIC)
Method: (§1) Minimum inhibitory concentration (MIC) determinations: MIC values for the putative EBO resistant mutants were determined by broth microdilution method (BMD) in cation-adjusted Mueller Hinton broth according to Clinical and Laboratory Standards Institute document M24-A3 (Clinical and Laboratory Standards Institute. Susceptibility Testing of Mycobacteria, Nocardia spp., and Other Aerobic Actinomycetes. 3rd ed. CLSI standard M24. Clinical and Laboratory Standards Institute, Wayne, PA: 2018). Agar MIC values were determined as essentially described by CLSI M24-A3 using 7H10 Middlebrook agar and 5% OADC.

[2] = system: M. avium 2285R; test: MIC, broth microdilution; format: cell-based; settings: for MIC: Mycobacterium avium, read-out: In Vitro Activity (MIC)
Method: as §1

[3] = system: M. avium ATCC 700858; test: MIC, broth microdilution; format: cell-based; settings: for MIC: Mycobacterium avium, ATCC700858, read-out: In Vitro Activity (MIC)
Method: as §1

[4] = system: M. chimaera 20-S-05; test: MIC, broth microdilution; format: cell-based; settings: for MIC: 20S05, read-out: In Vitro Activity (MIC)
Method: as §1

[5] = system: M. intracellulare 20-S-13; test: MIC, broth microdilution; format: cell-based; settings: for MIC: Mycobacterium intracellulare
Method: as §1

[6] = system: M. intracellulare DNA000111; test: MIC, broth microdilution; format: cell-based; settings: for MIC: Mycobacterium intracellulare, read-out: In Vitro Activity (MIC)
Method: as §1

[7] = system: M. peregrinum ATCC 700686; test: MIC, broth microdilution; format: cell-based; settings: for MIC: Mycolicibacterium peregrinum, ATCC700686, read-out: In Vitro Activity (MIC)
Method: as §1

[8] = system: M. avium ATCC 700898; test: Agar MIC; format: cell-based; settings: 7H10 Middlebrook agar, 5% OADC; for MIC: Mycobacterium avium, ATCC700898
Method: as §1
(§2) Resistant colonies were confirmed by replica plating on agar plates containing antibiotic at the same concentration used to select resistance. Control plates containing no drug were prepared for inoculum determination. The RF was calculated by dividing the total CFU/mL of resistant colonies by the total CFU/mL of the inoculum.

[9] = system: M. avium ATCC 700898 isolate 16-3A; test: MIC, EBO selected isolate; format: cell-based
Method: as §1, §2

[10] = system: M. avium ATCC 700898 isolate 16-5A; test: MIC, EBO selected isolate; format: cell-based
Method: as §1, §2

[11] = system: M. avium ATCC 700898 isolate 32-5A; test: MIC, EBO selected isolate; format: cell-based
Method: as §1, §2

[12] = system: M. avium ATCC 700898 isolate 32-8A; test: MIC, EBO selected isolate; format: cell-based
Method: as §1, §2

[13] = system: M. avium ATCC 700898 isolate 64-3A; test: MIC, EBO selected isolate; format: cell-based
Method: as §1, §2

[14] = system: M. avium ATCC 700898 isolate 64-4A; test: MIC, EBO selected isolate; format: cell-based
Method: as §1, §2

[15] = system: M. avium ATCC 700898 WT; test: MIC, parent strain; format: cell-based
Method: as §1, §2

[16] = system: M. avium ATCC 700898; format: cell-based
Method: as §2

[17] = system: EBO resistant mutants of M. avium ATCC 700898; format: cell-based
Method: as §1, §2

[18] = system: M. intracellulare 20-S-13; test: Checkerboard synergy testing with EBO; format: cell-based; settings: M. intracellulare 20-S-13, clarithromycin resistant
Method: Frozen stocks of the drugs were prepared at 5 or 2 mg/ml and frozen in aliquots at −20° C. On the day of the experiment the stocks were thawed and diluted to the appropriate concentration.
Stocks of isolates were prepared and frozen at −80° C. Fresh cultures of each isolate (1-2 weeks) were grown on either 7H10 agar plus 5% OADC or CAMH agar plus 5% OADC for use in each experiment.
(§3) The checkerboard methodology was used to test for synergy and antagonism using Middlebrook 7H9+5% OADC (Dubos et al. Am Rev Tuberc (1947) 56:334-45) as the microbiology growth media. The first antibiotic of the combination, EBO, was serially diluted along the x-axis, whereas the second antibiotic was diluted along the y- axis. Synergistic or antagonistic activity was determined using the sum of the fractional inhibitory concentration (EFIC) index. The FIC index is calculated as the sum of FIC A+FIC B, where FIC A is the MIC of drug A in the combination of drugs A and B divided by the MIC of drug A alone, plus the MIC of drug B in the combination of drugs A and B divided by the MIC of drug B alone. A combination of drugs is considered synergistic when the FIC is <0.5, additive when the FIC is >0.5 to 1, indifferent when the FIC is >1 to 2, and antagonistic when the FIC is >2 (EUCAST. Clin. Microbiol. Infect. (2000) 6: 503-508).

[19] = system: NTM strains (5 MAC strains, 2 rapidly growing); test: Checkerboard synergy testing with EBO, summary over strains; format: cell-based
Method: as §3

[20] = system: M. avium ATCC 700898; settings: Sensititre SLOMYCO plate; cited from earlier work
[21] = 20S13, M. intracellulare 20-S-13, read-out: In Vitro Activity (MIC)
[22] = 20S13, read-out: In Vitro Activity (MIC)
[23] = Mycobacterium avium, ATCC700898

## NCC[C@H](O)C(=O)N[C@@H]1C[C@H](N)[C@@H](O[C@H]2O[C@H](CN)[C@@H](O)[C@H](O)[C@H]2O)[C@H](O)[C@H]1O[C@H]1O[C@H](CO)[C@@H](O)[C@H](N)[C@H]1O [AMK, Amikacin]
[1]
  MIC: 64 µg/mL (≈ 109 µM)
[2]
  MIC: 8 µg/mL (≈ 13.7 µM)
[3]
  MIC: 16 µg/mL (≈ 27.3 µM)
[4]
  MIC: 32 µg/mL (≈ 54.6 µM)
[5]; [21]
  MIC: 20 µg/mL (≈ 34.2 µM)
[6]
  MIC: 16 µg/mL (≈ 27.3 µM)
[7]
  MIC: 2 µg/mL (≈ 3.42 µM)
[8]
  MIC: 32 µg/mL (≈ 54.6 µM)
[9]; Mycobacterium avium
  MIC: 32 µg/mL (≈ 54.6 µM)
[10]; Mycobacterium avium
  MIC: 32 µg/mL (≈ 54.6 µM)
[11]; Mycobacterium avium
  MIC: 32 µg/mL (≈ 54.6 µM)
[12]; Mycobacterium avium
  MIC: 32 µg/mL (≈ 54.6 µM)
[13]; Mycobacterium avium
  MIC: 32 µg/mL (≈ 54.6 µM)
[14]; Mycobacterium avium
  MIC: 32 µg/mL (≈ 54.6 µM)

## COc1nc2ccc(Br)cc2cc1[C@@H](c1ccccc1)[C@@](O)(CCN(C)C)c1cccc2ccccc12 [BDQ, Bedaquiline]
[1]
  MIC: 0.5 µg/mL (≈ 0.9 µM)
[2]
  MIC: 0.03 µg/mL (≈ 0.054 µM)
[3]
  MIC: 0.06 µg/mL (≈ 0.108 µM)
[4]
  MIC: 0.06 µg/mL (≈ 0.108 µM)
[5]; [22]
  MIC: > 0.5 µg/mL
[6]
  MIC: 0.5 µg/mL (≈ 0.9 µM)
[7]
  MIC: 0.06 µg/mL (≈ 0.108 µM)
[15]; [23]
  MIC: 0.06 µg/mL (≈ 0.108 µM)
[9]; Mycobacterium avium
  MIC: 0.06 µg/mL (≈ 0.108 µM)
[10]; Mycobacterium avium
  MIC: 0.06 µg/mL (≈ 0.108 µM)
[11]; Mycobacterium avium
  MIC: 0.03 µg/mL (≈ 0.054 µM)
[12]; Mycobacterium avium
  MIC: 0.12 µg/mL (≈ 0.216 µM)
[13]; Mycobacterium avium
  MIC: 0.12 µg/mL (≈ 0.216 µM)
[14]; Mycobacterium avium
  MIC: 0.06 µg/mL (≈ 0.108 µM)

## CC(C)/N=c1\cc2n(-c3ccc(Cl)cc3)c3ccccc3nc-2cc1Nc1ccc(Cl)cc1 [CFZ, clofazimine]
[15]; [23]
  MIC: 0.5 µg/mL (≈ 1.06 µM)
[9]; Mycobacterium avium
  MIC: 0.25 µg/mL (≈ 0.528 µM)
[10]; Mycobacterium avium
  MIC: 0.25 µg/mL (≈ 0.528 µM)
[11]; Mycobacterium avium
  MIC: 0.5 µg/mL (≈ 1.06 µM)
[12]; Mycobacterium avium
  MIC: 0.25 µg/mL (≈ 0.528 µM)
[13]; Mycobacterium avium
  MIC: 0.5 µg/mL (≈ 1.06 µM)
[14]; Mycobacterium avium
  MIC: 0.5 µg/mL (≈ 1.06 µM)

## CC[C@H]1OC(=O)[C@H](C)[C@@H](O[C@H]2C[C@@](C)(OC)[C@@H](O)[C@H](C)O2)[C@H](C)[C@@H](O[C@@H]2O[C@H](C)C[C@H](N(C)C)[C@H]2O)[C@](C)(OC)C[C@@H](C)C(=O)[C@H](C)[C@@H](O)[C@]1(C)O [CLR, Clarithromycin]
[1]
  MIC: 16 µg/mL (≈ 21.4 µM)
[2]
  MIC: 0.125 µg/mL (≈ 0.167 µM)
[3]
  MIC: 2 µg/mL (≈ 2.67 µM)
[4]
  MIC: 4 µg/mL (≈ 5.35 µM)
[5]; [22]
  MIC: > 128 µg/mL
[6]
  MIC: 2 µg/mL (≈ 2.67 µM)
[7]
  MIC: 1 µg/mL (≈ 1.34 µM)
[8]
  MIC: 4 µg/mL (≈ 5.35 µM)
[15]; [23]
  MIC: 2 µg/mL (≈ 2.67 µM)
[9]; Mycobacterium avium
  MIC: 0.5 µg/mL (≈ 0.668 µM)
[11]; Mycobacterium avium
  MIC: 1 µg/mL (≈ 1.34 µM)
[12]; Mycobacterium avium
  MIC: 0.5 µg/mL (≈ 0.668 µM)
[13]; Mycobacterium avium
  MIC: 0.5 µg/mL (≈ 0.668 µM)
[14]; Mycobacterium avium
  MIC: 2 µg/mL (≈ 2.67 µM)

## NC[C@H]1OB(O)c2c(OCCCO)cccc21 [EBO, Epetraborole hydrochloride]
[1]
  In Vitro Activity (MIC): 0.06 µg/mL
[2]
  In Vitro Activity (MIC): 0.5 µg/mL
[3]
  In Vitro Activity (MIC): 2 µg/mL
[4]
  In Vitro Activity (MIC): 2 µg/mL
[5]; M. intracellulare 20-S-13
  In Vitro Activity (MIC): 0.25 µg/mL
[6]
  In Vitro Activity (MIC): 0.5 µg/mL
[7]
  In Vitro Activity (MIC): 0.06 µg/mL
[8]
  Agar MIC: 8 µg/mL
[16]; EBO selection concentration 16 mg/L
  Resistance Frequency: 1.58 × 10^−7
[16]; EBO selection concentration 32 mg/L
  Resistance Frequency: 1.21 × 10^−8
[16]; EBO selection concentration 64 mg/L
  Resistance Frequency: 8.49 × 10^−9
[16]; selected on 2-8× agar MIC
  Spontaneous resistance frequency: 1.58×10^−7 to 8.48×10^−9
[15]; WT parent strain
  MIC: 0.5 µg/mL
[9]; EBO selected isolate 16-3A
  MIC: >128 µg/mL
[10]; EBO selected isolate 16-5A
  MIC: 64 µg/mL
[11]; EBO selected isolate 32-5A
  MIC: >128 µg/mL
[12]; EBO selected isolate 32-8A
  MIC: >128 µg/mL
[13]; EBO selected isolate 64-3A
  MIC: >128 µg/mL
[14]; EBO selected isolate 64-4A
  MIC: >128 µg/mL
[17]
  Change of MIC value in EBO resistant mutants versus wild-type: ≥ 128 fold

## CC[C@@H](CO)NCCN[C@@H](CC)CO [EMB, Ethambutol]
[1]
  MIC: 32 µg/mL (≈ 157 µM)
[2]
  MIC: 16 µg/mL (≈ 78.3 µM)
[3]
  MIC: 8 µg/mL (≈ 39.2 µM)
[4]
  MIC: 4 µg/mL (≈ 19.6 µM)
[5]; [22]
  MIC: 64 µg/mL (≈ 313 µM)
[6]
  MIC: 32 µg/mL (≈ 157 µM)
[7]
  MIC: 8 µg/mL (≈ 39.2 µM)
[18]
  Interaction between ethambutol and EBO, in words: indifference
[19]
  Interaction with EBO over the 5 MAC strains tested, in words: synergy was observed with 2 strains and additivity with an additional 2 strains
[8]
  MIC: 8 µg/mL (≈ 39.2 µM)
[15]; [23]
  MIC: 4 µg/mL (≈ 19.6 µM)
[9]; Mycobacterium avium
  MIC: 4 µg/mL (≈ 19.6 µM)
[10]; Mycobacterium avium
  MIC: 4 µg/mL (≈ 19.6 µM)
[11]; Mycobacterium avium
  MIC: 4 µg/mL (≈ 19.6 µM)
[12]; Mycobacterium avium
  MIC: 8 µg/mL (≈ 39.2 µM)
[13]; Mycobacterium avium
  MIC: 4 µg/mL (≈ 19.6 µM)
[14]; Mycobacterium avium
  MIC: 8 µg/mL (≈ 39.2 µM)

## CO[C@H]1/C=C/O[C@@]2(C)Oc3c(C)c(O)c4c(c3C2=O)C2=NC3(CCN(CC(C)C)CC3)NC2=C(NC(=O)/C(C)=C\C=C\[C@H](C)[C@H](O)[C@@H](C)[C@@H](O)[C@@H](C)[C@H](OC(C)=O)[C@@H]1C)C4=O [RFB, Rifabutin]
[1]
  MIC: 32 µg/mL (≈ 37.8 µM)
[2]
  MIC: 0.125 µg/mL (≈ 0.148 µM)
[3]
  MIC: 0.25 µg/mL (≈ 0.295 µM)
[4]
  MIC: 1 µg/mL (≈ 1.18 µM)
[5]; [21]
  MIC: 0.06 µg/mL (≈ 0.0708 µM)
[6]
  MIC: 2 µg/mL (≈ 2.36 µM)
[7]
  MIC: 8 µg/mL (≈ 9.44 µM)
[8]
  MIC: 0.25 µg/mL (≈ 0.295 µM)
[15]; [23]
  MIC: 0.06 µg/mL (≈ 0.0708 µM)
[9]; Mycobacterium avium
  MIC: 0.06 µg/mL (≈ 0.0708 µM)
[10]; Mycobacterium avium
  MIC: 0.06 µg/mL (≈ 0.0708 µM)
[11]; Mycobacterium avium
  MIC: 0.06 µg/mL (≈ 0.0708 µM)
[12]; Mycobacterium avium
  MIC: 0.125 µg/mL (≈ 0.148 µM)
[13]; Mycobacterium avium
  MIC: 0.06 µg/mL (≈ 0.0708 µM)
[14]; Mycobacterium avium
  MIC: 0.25 to 0.5 µg/mL (≈ 0.295 to 0.59 µM)

## CO[C@H]1/C=C/O[C@@]2(C)Oc3c(C)c(O)c4c(O)c(c(/C=N/N5CCN(C)CC5)c(O)c4c3C2=O)NC(=O)/C(C)=C\C=C\[C@H](C)[C@H](O)[C@@H](C)[C@@H](O)[C@@H](C)[C@H](OC(C)=O)[C@@H]1C [rifampin, Rifampin]
[20]
  MIC variance previously reported for this strain: 8 fold
